pIC50, pKi: −log10 of the molar value. Where two headings read alike, the source gives them in different places.
Experiments:
[1] = test system: KP1009 (CTX-M-15); assay: Potentiation of aztreonam, strain KP1009; assay type: cell-based
[2] = test system: KP1009 (CTX-M-15); assay: Potentiation of tigemonam, strain KP1009; conditions: minimum BLI concentration inhibiting growth with 4 μg/mL tigemonam
[3] = molecular target: T1, Urokinase (Homo sapiens, UniProt P00749); assay: Serine protease inhibition: urokinase; assay type: biochemical, mammalian; conditions: Table 8A, class symbols; read-out: IC50 Urokinase
T1 construct: purchased Calbiochem 672112
Procedure: (§1) The effect of selected BLIs on the enzymatic activity of some common mammalian serine proteases was evaluated.
(§2) 50 μl of the diluted enzyme was mixed with 50 μl of inhibitor at various concentrations and 50 μl of corresponding buffer (Table 7). Reaction mixtures were incubated for 10 min at 37° C. Subsequently, 50 μl of corresponding substrate (Table 7) was added and absorbance or fluorescence was monitored for 30 min on SpectraMax M2 plate reader (Molecular Devices). 4-(2-Aminoethyl)benzenesulfonyl fluoride hydrochloride (AEBSF) and leupeptin were used as positive controls. Rates of reaction were calculated and presented relative to “no treatment” control.

[4] = molecular target: T2, CathepsinG (Homo sapiens, UniProt P08311); assay: Serine protease inhibition: cathepsin G; assay type: biochemical, mammalian; conditions: Table 8B
T2 construct: purchased EMD Millipore 219373
T2 sequence (P08311 21-244): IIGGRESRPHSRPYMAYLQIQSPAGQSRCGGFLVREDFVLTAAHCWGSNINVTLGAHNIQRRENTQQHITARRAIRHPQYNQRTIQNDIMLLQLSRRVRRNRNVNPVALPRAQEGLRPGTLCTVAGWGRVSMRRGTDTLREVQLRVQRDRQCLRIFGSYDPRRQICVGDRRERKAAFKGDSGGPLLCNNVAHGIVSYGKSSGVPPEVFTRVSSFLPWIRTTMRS
Procedure: as §1, §2

[5] = molecular target: T3, Dipeptidyl peptidase 9 (DPP9) (Homo sapiens, UniProt Q86TI2); assay: Serine protease inhibition: DPP9; assay type: biochemical, mammalian; conditions: Table 8B; read-out: IC50 DPP9
T3 construct: purchased BPS Bioscience 80090
Procedure: as §1, §2

[6] = molecular target: P99 (Enterobacter cloacae, UniProt P05364); assay: Inhibition of nitrocefin cleavage by purified P99; assay type: biochemical; conditions: nitrocefin reporter substrate, purified enzyme; read-out: Ki (P99, NCF)
Procedure: (§3) Purified enzymes were mixed with various concentrations of inhibitors in reaction buffer and incubated for 10 min at room temperature. Nitrocefin was added and substrate cleavage profiles were recorded at 490 nm every 10 sec for 10 min.

[7] = molecular target: T4, Plasmin (Homo sapiens, UniProt P00747); assay: Serine protease inhibition: plasmin; assay type: biochemical, mammalian; conditions: Table 8A, class symbols; read-out: IC50 Plasmin
T4 construct: Plasmin; MPBio; 19419890; purchased MPBio 19419890
Procedure: as §1, §2

[8] = molecular target: T5, HtrA2 (Homo sapiens, UniProt O43464); assay: Serine protease inhibition: HtrA2; assay type: biochemical, mammalian; conditions: Table 8B; read-out: IC50 HtrA2
T5 sequence (O43464 134-458): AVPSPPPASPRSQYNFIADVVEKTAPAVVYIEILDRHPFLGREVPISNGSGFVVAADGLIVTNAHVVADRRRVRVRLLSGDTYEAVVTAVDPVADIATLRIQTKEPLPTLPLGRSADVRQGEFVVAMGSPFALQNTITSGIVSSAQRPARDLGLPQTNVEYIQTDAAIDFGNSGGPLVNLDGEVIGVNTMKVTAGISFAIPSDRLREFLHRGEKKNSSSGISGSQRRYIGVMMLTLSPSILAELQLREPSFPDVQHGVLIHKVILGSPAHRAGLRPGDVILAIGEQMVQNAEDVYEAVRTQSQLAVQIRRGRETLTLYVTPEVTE
Procedure: as §1, §2

[9] = test system: PAM1032/KPC-2; assay: Biapenem potentiation in PAM1032/KPC-2 (MexAB-OprM overexpressed); assay type: cell-based, Pseudomonas aeruginosa
Procedure: Efflux of BLIs from Pseudomonas aeruginosa by the MexAB-OprM efflux pump was also evaluated. […] Due to expression of KPC-2 both strains became resistant to biapenem. […] Potency of BLIs to potentiate biapenem in these strains was determined. […] The ratio of MPC64 values for each BLI in PAM1032/KPC-2 (efflux proficient) and PAM1154/KPC-2 (efflux deficient) was determined to generate the Efflux Index (EI).

[10] = molecular target: T6, Trypsin (Bos taurus, UniProt P00760); assay: Serine protease inhibition: trypsin; assay type: biochemical, mammalian; conditions: Table 8A, class symbols; read-out: IC50 Trypsin
T6 construct: purchased Calbiochem 6502
T6 sequence (P00760 24-246): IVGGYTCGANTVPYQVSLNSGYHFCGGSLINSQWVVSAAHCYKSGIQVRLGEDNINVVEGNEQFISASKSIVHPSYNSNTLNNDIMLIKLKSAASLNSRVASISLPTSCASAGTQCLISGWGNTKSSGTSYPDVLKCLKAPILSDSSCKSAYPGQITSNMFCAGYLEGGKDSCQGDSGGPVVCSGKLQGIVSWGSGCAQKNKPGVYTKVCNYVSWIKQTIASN
Procedure: as §1, §2

[11] = molecular target: OXA-48 (Klebsiella pneumoniae, UniProt Q6XEC0); assay: Inhibition of nitrocefin cleavage by purified OXA-48; assay type: biochemical; conditions: nitrocefin reporter substrate, purified enzyme; read-out: Ki (OXA-48, NCF)
Summary of the method: (§4)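 Readout: nitrocefin hydrolysis, A490 recorded every 10 sec over 10 min. Enzyme and inhibitor (varied concentrations) preincubated 10 min, RT, in reaction buffer before substrate addition.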

[12] = test system: EC1010 (CMY-6); assay type: cell-based
[13] = test system: EC1010 (CMY-6); assay: Potentiation of aztreonam, strain EC1010; assay type: cell-based
[14] = molecular target: CMY-2 (Klebsiella pneumoniae, UniProt Q48434); assay: Inhibition of nitrocefin cleavage by purified CMY-2; assay type: biochemical; conditions: nitrocefin reporter substrate, purified enzyme; read-out: Ki (CMY-2, NCF)
Procedure: as §3

[15] = test system: ec302 (TEM-10); assay: Potentiation of tigemonam, strain ec302; assay type: cell-based
[16] = molecular target: CTX-M-14 (Escherichia coli, UniProt Q9L5C7); assay: Inhibition of nitrocefin cleavage by purified CTX-M-14; assay type: biochemical; conditions: nitrocefin reporter substrate, purified enzyme; read-out: Ki (CTX-M-14, NCF)
Summary of the method: as §4

[17] = BLI potency to decrease biapenem MIC 64-fold, 32 to 0.5 μg/ml, efflux proficient strain

T3 sequence (Q86TI2 whole entry): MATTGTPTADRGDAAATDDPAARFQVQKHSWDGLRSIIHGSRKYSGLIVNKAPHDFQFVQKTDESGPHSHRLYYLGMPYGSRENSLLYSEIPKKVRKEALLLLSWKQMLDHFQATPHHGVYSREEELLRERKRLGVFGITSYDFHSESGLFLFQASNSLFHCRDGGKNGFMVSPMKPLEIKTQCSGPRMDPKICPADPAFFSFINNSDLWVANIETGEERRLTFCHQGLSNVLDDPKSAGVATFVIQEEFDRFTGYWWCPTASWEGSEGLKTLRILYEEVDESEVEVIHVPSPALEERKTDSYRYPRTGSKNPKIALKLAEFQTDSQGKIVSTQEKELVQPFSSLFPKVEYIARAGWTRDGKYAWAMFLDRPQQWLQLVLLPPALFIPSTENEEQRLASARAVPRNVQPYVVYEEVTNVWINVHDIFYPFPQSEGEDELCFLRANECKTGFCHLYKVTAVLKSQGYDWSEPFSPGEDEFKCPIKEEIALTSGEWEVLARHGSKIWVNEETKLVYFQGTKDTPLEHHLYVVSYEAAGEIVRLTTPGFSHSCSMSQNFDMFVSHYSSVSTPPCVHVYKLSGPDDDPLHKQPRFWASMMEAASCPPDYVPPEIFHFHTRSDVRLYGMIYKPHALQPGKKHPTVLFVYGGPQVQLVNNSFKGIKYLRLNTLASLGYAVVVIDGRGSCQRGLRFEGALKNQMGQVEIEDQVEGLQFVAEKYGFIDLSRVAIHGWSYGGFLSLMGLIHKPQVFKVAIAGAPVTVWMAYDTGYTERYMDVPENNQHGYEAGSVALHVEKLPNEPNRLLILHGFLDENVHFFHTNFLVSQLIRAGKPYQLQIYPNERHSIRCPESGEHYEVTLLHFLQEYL
Chain of OXA-48 (Q6XEC0 23-265 limits assumed): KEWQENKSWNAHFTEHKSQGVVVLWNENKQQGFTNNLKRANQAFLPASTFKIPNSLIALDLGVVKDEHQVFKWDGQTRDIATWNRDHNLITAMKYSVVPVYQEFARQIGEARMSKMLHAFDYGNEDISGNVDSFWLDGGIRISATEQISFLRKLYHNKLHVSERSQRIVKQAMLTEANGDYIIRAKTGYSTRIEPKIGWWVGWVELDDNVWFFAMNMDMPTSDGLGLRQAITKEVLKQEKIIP
T4 sequence (P00747 581-810 limits assumed, species assumed): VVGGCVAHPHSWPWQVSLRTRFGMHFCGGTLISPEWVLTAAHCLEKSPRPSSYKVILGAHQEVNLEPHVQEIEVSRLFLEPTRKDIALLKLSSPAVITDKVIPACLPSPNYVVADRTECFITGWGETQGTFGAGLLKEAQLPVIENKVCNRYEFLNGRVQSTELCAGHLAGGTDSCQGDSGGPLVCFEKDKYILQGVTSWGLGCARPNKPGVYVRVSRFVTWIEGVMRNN
T4 sequence (P00747 97-580 partner limits assumed, species assumed): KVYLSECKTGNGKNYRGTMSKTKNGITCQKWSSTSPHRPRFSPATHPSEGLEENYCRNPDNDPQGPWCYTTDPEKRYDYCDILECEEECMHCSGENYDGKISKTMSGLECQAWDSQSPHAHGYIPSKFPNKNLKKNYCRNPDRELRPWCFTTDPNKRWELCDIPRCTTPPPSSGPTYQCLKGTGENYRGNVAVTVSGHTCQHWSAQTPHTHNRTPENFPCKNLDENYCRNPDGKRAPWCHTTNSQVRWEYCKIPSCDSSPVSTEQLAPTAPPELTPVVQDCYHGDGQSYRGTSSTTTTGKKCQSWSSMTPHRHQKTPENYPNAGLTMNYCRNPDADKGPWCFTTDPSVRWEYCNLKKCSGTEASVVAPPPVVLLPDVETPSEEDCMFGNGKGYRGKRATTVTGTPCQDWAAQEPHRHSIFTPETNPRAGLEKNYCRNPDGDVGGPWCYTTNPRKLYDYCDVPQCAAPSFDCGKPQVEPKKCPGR
Chain of CTX-M-14 (Q9L5C7 entry or part of it): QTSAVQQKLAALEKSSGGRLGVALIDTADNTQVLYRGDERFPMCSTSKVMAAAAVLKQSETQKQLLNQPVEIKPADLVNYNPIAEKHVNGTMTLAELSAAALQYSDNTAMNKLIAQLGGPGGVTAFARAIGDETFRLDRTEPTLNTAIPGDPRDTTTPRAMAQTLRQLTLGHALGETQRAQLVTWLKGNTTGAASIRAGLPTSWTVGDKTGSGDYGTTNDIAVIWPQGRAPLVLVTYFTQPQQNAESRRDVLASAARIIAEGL
Chain of CMY-2 (Q48434 21-381, species assumed): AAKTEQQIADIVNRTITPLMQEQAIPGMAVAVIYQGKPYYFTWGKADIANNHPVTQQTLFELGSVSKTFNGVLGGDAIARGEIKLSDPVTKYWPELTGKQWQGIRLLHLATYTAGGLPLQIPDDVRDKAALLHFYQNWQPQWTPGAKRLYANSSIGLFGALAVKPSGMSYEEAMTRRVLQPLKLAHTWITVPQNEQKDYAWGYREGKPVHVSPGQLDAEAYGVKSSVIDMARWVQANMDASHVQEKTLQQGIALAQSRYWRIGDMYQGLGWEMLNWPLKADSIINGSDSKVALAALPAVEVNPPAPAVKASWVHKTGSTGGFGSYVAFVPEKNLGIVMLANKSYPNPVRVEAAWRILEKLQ
Chain of P99 (P05364 21-381): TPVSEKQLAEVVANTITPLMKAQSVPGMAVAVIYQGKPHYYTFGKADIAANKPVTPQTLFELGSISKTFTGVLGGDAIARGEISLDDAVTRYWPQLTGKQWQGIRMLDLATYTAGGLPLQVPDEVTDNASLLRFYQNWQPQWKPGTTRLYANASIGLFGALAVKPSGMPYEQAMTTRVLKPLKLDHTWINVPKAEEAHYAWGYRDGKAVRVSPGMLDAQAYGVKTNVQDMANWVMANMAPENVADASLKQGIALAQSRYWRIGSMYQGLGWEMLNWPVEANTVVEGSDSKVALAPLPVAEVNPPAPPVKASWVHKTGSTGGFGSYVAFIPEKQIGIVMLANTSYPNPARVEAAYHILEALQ

Row | Structure (SMILES) | AZT MPC4 CTX-M-15 KP1009 [1] | TIG MPC4 CTX-M-15 KP1009 [2] | pIC50 [3] | pIC50 [4] | pIC50 [5] | pKi [6] | pIC50 [7] | pIC50 [8] | PAM1032/KPC-2 Biapenem MPC64 [9, 17] | pIC50 [10] | pKi [11] | TIG MPC4 CMY-6 EC1010 [12] | AZT MPC4 CMY-6 EC1010 [13] | pKi [14] | TIG MPC4 TEM-10 ec302 [15] | pKi [16] | PAM1032/KPC-2 Biapenem MPC64 [9]
1 | O=C(CSC(F)F)N[C@H]1Cc2cccc(C(=O)O)c2OB1O [Compound 3, (R)-3-(2-(difluoromethylthio)acetamido)-2-hydroxy-3,4-dihydro-2H-benzo[e][1,2]oxaborinine-8-carboxylic acid] | Y (key: X = MIC of less than 1 μg/mL; Y = MIC of 1 μg/mL to 10 μg/mL; Z = MIC of greater than 10 μg/mL) | X (X = MIC of less than 1 μg/mL) | < 3.10 | > 4.82 | < 3.30 | > 9.00 | < 3.10 | < 3.30 | Z (Z Greater than 40) | < 3.10 | > 9.00 | X (key: X = MIC of less than 1 μg/mL; Y = MIC of 1 μg/mL to 10 μg/mL; Z = MIC of greater than 10 μg/mL) |  |  |  |  | 
2 | CSC(=O)N[C@H]1Cc2cccc(C(=O)O)c2OB1O [Compound 11, (R)-2-hydroxy-3-(methylthiocarbonylamino)-3,4-dihydro-2H-benzo[e][1,2]oxaborinine-8-carboxylic acid] | Y (key: X = MIC of less than 1 μg/mL; Y = MIC of 1 μg/mL to 10 μg/mL; Z = MIC of greater than 10 μg/mL) | Y (Y = MIC of 1 μg/mL to 10 μg/mL) | < 3.10 | 3.30 to 4.82 | < 3.30 | > 9.00 | < 3.10 |  | Z (Z Greater than 40) | < 3.10 | > 9.00 | X (key: X = MIC of less than 1 μg/mL; Y = MIC of 1 μg/mL to 10 μg/mL; Z = MIC of greater than 10 μg/mL) | Y (key: X = MIC of less than 1 μg/mL; Y = MIC of 1 μg/mL to 10 μg/mL; Z = MIC of greater than 10 μg/mL) | > 9.00 | Z (key: X = MIC of less than 1 μg/mL; Y = MIC of 1 μg/mL to 10 μg/mL; Z = MIC of greater than 10 μg/mL) |  | 
3 | Nc1nnc(SCC(=O)N[C@H]2Cc3cccc(C(=O)O)c3OB2O)s1 [Compound 5, (R)-3-(2-(5-amino-1,3,4-thiadiazol-2-ylthio)acetamido)-2-hydroxy-3,4-dihydro-2H-benzo[e][1,2]oxaborinine-8-carboxylic acid] | X (key: X = MIC of less than 1 μg/mL; Y = MIC of 1 μg/mL to 10 μg/mL; Z = MIC of greater than 10 μg/mL) | X (X = MIC of less than 1 μg/mL) | < 3.10 | > 4.82 | < 3.30 |  | < 3.10 | < 3.30 | Y (Y = 10 to 40) | < 3.10 |  | X (key: X = MIC of less than 1 μg/mL; Y = MIC of 1 μg/mL to 10 μg/mL; Z = MIC of greater than 10 μg/mL) | X (key: X = MIC of less than 1 μg/mL; Y = MIC of 1 μg/mL to 10 μg/mL; Z = MIC of greater than 10 μg/mL) |  | Y (key: X = MIC of less than 1 μg/mL; Y = MIC of 1 μg/mL to 10 μg/mL; Z = MIC of greater than 10 μg/mL) | 8.00 to 9.00 | 
4 | O=C(Cc1cccs1)N[C@H]1Cc2cccc(C(=O)O)c2OB1O [CPD A, reference compound] |  | Y (Y = MIC of 1 μg/mL to 10 μg/mL) | < 3.10 | > 4.82 | 3.30 to 4.82 |  | < 3.10 | < 3.30 | Z (Z Greater than 40) | < 3.10 | > 9.00 | X (key: X = MIC of less than 1 μg/mL; Y = MIC of 1 μg/mL to 10 μg/mL; Z = MIC of greater than 10 μg/mL) |  | > 9.00 |  | > 9.00 | 
5 | O=CN[C@H]1Cc2cccc(C(=O)O)c2OB1O [Compound 4, (R)-3-formamido-2-hydroxy-3,4-dihydro-2H-benzo[e][1,2]oxaborinine-8-carboxylic acid] |  | Y (Y = MIC of 1 μg/mL to 10 μg/mL) | < 3.10 | 3.30 to 4.82 | < 3.30 | 8.00 to 9.00 | < 3.10 | < 3.30 |  | < 3.10 | 8.00 to 9.00 | X (key: X = MIC of less than 1 μg/mL; Y = MIC of 1 μg/mL to 10 μg/mL; Z = MIC of greater than 10 μg/mL) | X (key: X = MIC of less than 1 μg/mL; Y = MIC of 1 μg/mL to 10 μg/mL; Z = MIC of greater than 10 μg/mL) | 8.00 to 9.00 |  | 8.00 to 9.00 | X (key: X = Less than 10; Y = 10 to 40; Z Greater than 40)
6 | [N-]=[N+]=NCC(=O)N[C@H]1Cc2cccc(C(=O)O)c2OB1O [Compound 8, (R)-3-(2-azidoacetamido)-2-hydroxy-3,4-dihydro-2H-benzo[e][1,2]oxaborinine-8-carboxylic acid] | X (key: X = MIC of less than 1 μg/mL; Y = MIC of 1 μg/mL to 10 μg/mL; Z = MIC of greater than 10 μg/mL) | X (X = MIC of less than 1 μg/mL) | < 3.10 | > 4.82 | < 3.30 |  | < 3.10 | < 3.30 | Y (Y = 10 to 40) | < 3.10 | > 9.00 | X (key: X = MIC of less than 1 μg/mL; Y = MIC of 1 μg/mL to 10 μg/mL; Z = MIC of greater than 10 μg/mL) | X (key: X = MIC of less than 1 μg/mL; Y = MIC of 1 μg/mL to 10 μg/mL; Z = MIC of greater than 10 μg/mL) |  | Y (key: X = MIC of less than 1 μg/mL; Y = MIC of 1 μg/mL to 10 μg/mL; Z = MIC of greater than 10 μg/mL) |  | 
7 | O=C(CSc1nncs1)N[C@H]1Cc2cccc(C(=O)O)c2OB1O [Compound 7, (R)-3-(2-(1,3,4-thiadiazol-2-ylthio)acetamido)-2-hydroxy-3,4-dihydro-2H-benzo[e][1,2]oxaborinine-8-carboxylic acid] | X (key: X = MIC of less than 1 μg/mL; Y = MIC of 1 μg/mL to 10 μg/mL; Z = MIC of greater than 10 μg/mL) | X (X = MIC of less than 1 μg/mL) | < 3.10 | 3.30 to 4.82 | < 3.30 | > 9.00 | < 3.10 |  | Z (Z Greater than 40) | < 3.10 |  | X (key: X = MIC of less than 1 μg/mL; Y = MIC of 1 μg/mL to 10 μg/mL; Z = MIC of greater than 10 μg/mL) | X (key: X = MIC of less than 1 μg/mL; Y = MIC of 1 μg/mL to 10 μg/mL; Z = MIC of greater than 10 μg/mL) | > 9.00 | Y (key: X = MIC of less than 1 μg/mL; Y = MIC of 1 μg/mL to 10 μg/mL; Z = MIC of greater than 10 μg/mL) | > 9.00 | 
